Test results published in US20050063931A1, “Hair-follicle treatment,in particular against hair loss” (priority 2001, published 2005).

Columns and labels:
[1] = tested on: γδT cells; test: γδT-cell presence (immunohistochemical); type: in vivo, mice of the strain CBA/J; settings: no stress + SP
Description: (§1) The tests were carried out in vivo on mice of the strain CBA/J which were pregnant since, as is known, there is a close correlation between exposure to stress and an increase in the percentage of abortions. In order to determine the effect of stress on hair growth, the following biological and immunological parameters were measured: • the number of cells in apoptosis in the hair follicle, • the proliferation of keratinocytes in the hair follicle, • the activity of some immunocytes, in particular, of macrophages, mast cells, and γδT cells. In accordance with a well-established model for the study of stress, some mice were subjected to predetermined doses of ultrasound (sonic stress) for 7 days, to ascertain its impact both on the activity of the hair follicle and on the immune response of the perifollicular region. Another group of mice was subjected to treatment with substance P (SP), and yet others to sonic stress treatment combined with the administration of a NK1-receptor antagonist substance (indicated SP-RA). Upon completion of the above-mentioned treatments, the parameters listed above were measured again and compared with those measured in mice which had not been subjected to any treatment. γδT-cell presence was detected by an immunohistochemical technique (column 8).

[2] = tested on: mast cells; test: Mast-cell activity, degranulated mast cells; type: in vivo, mice of the strain CBA/J; settings: no stress + SP
Description: as §1, with “Mast-cell activity” for “γδT-cell presence”, “measured” for “detected”, “measuring the percentage of degranulated mast cells relative to the total mast cells present in the field of vision” for “an immunohistochemical technique”, “7).” for “8).”

[3] = tested on: keratinocytes in the hair follicle; test: Proliferation of keratinocytes in the hair follicle, positive Ki67 cells (immunohistochemical); type: in vivo, mice of the strain CBA/J; settings: no stress + SP
Description: as §1, with “The proliferation of the keratinocytes” for “γδT-cell presence”, “measured” for “detected”, “technique by measurement of the positive Ki67 cells” for “technique”, “5).” for “8).”

[4] = tested on: hair follicle; settings: treatment during telogen stage; cited from earlier work
[5] = tested on: hair follicle; test: Cells in apoptosis in the hair follicle by TUNEL technique; type: in vivo, mice of the strain CBA/J; settings: no stress + SP
Description: as §1, with “Another group of mice was subjected to treatment with substance P (SP), and yet others to sonic stress treatment combined with the administration of a NK1-receptor antagonist substance (indicated SP-RA).” left out, “The number of cells in apoptosis” for “γδT-cell presence”, “measured” for “detected”, “the TUNEL” for “an immunohistochemical”, “technique in a first region of the hair follicle comprising the infundibulum, the capsular germinal region, and the secondary germinal region” for “technique”, “3), and in a second, more extensive region comprising, in addition to the first region, the epidermis and the parafollicular dermis (column 4).” for “8).”

[6] = tested on: perifollicular macrophages; test: Macrophage presence by expression of Class II MHC glycoprotein; type: in vivo, mice of the strain CBA/J; settings: no stress + SP
Description: as §1, with “Macrophage” for “γδT-cell”, “investigated” for “detected”, “detection of the expression of Class II MHC glycoprotein” for “an immunohistochemical technique”, “6).” for “8).”

[7] = tested on: hair follicle; test: Extent of progress of the hair cycle (HCS) 16 days after epilation, FIG. 1; type: in vivo, mice; settings: group C, substance P, no stress
Description: The extent of progress of the cycle in this case was an index of the rate at which the hair follicle progresses from the anagen to the catagen.
With reference to the histogram of FIG. 1, appended to the present description: • the first group of mice (A) underwent no treatment, • the second group (B) was subjected to sonic stress, • the third group (C) was subjected to treatment with substance P, • the fourth group (D) was subjected to treatment with an NK1-receptor antagonist substance, and • the fifth group (E) was subjected to combined stress and NK1-receptor antagonist substance treatment.

[8] = Abortions in pregnant mice (sonic stress model); type: in vivo, mice of the strain CBA/J; settings: no stress + SP, pregnant CBA/J mice
Description: as §1, with “abortions.” for “abortions. In order to determine the effect of stress on hair growth, the following biological and immunological parameters were measured: • the number of cells in apoptosis in the hair follicle, • the proliferation of keratinocytes in the hair follicle, • the activity of some immunocytes, in particular, of macrophages, mast cells, and γδT cells.”, “treatment.” for “treatment. γδT-cell presence was detected by an immunohistochemical technique (column 8).”

Substance P [SP]
γδ TCR+ (γδT-cell presence) [1]: 1.3
MC (percentage of degranulated mast cells relative to total mast cells in the field of vision) [2]: 7.9
Ki67+ cells (proliferation of keratinocytes) [3]: 7.7
Effect on hair follicle treated during the telogen stage [4]: induced to go on to the subsequent anagen stage
TUNEL+ cells in apoptosis, first region of the hair follicle (infundibulum, capsular germinal region, secondary germinal region) [5]: 8.0
TUNEL+ cells in apoptosis, second more extensive region (first region plus epidermis and parafollicular dermis) [5]: 9.0
MHC II (macrophage presence) [6]: 11.0
Extent of progress of the cycle (HCS): premature catagen [7]: an effect also well simulated by substance P
% Abortions [8]: 19%
